Source: patent US20030091627A1, “Rate-controlled delivery of macrolides” (priority 2001, published 2003)
In brackets after ≈: the same amount, converted by molar mass.

Tests used:
[1] = Solubility of clarithromycin as a function of pH (tested in water without a buffer); type: physicochemical
[2] = Solubility of clarithromycin along the gastrointestinal tract; type: physicochemical
[3] = acidic pH; cited from earlier work

solubility ([1]; aqueous buffer, pH 2.4, water without a buffer, read-out: Solubility): ~10000 µg/mL (≈ 13.4 mM)
solubility ([1]; aqueous buffer, pH 5.4, water without a buffer, read-out: Solubility): ~5500 µg/mL (≈ 7.35 mM)
solubility ([1]; pH 7.4, water without a buffer): about negligible
solubility ([2]; colon, pH 7.5 to 8.5): about insoluble
solubility ([2]; duodenum (region of the gastrointestinal tract), read-out: Solubility): 5000 µg/mL (≈ 6.68 mM)
solubility ([2]; stomach (region of the gastrointestinal tract), read-out: Solubility): 10000 µg/mL (≈ 13.4 mM)
SMILES: CC[C@H]1OC(=O)[C@H](C)[C@@H](O[C@H]2C[C@@](C)(OC)[C@@H](O)[C@H](C)O2)[C@H](C)[C@@H](O[C@@H]2O[C@H](C)C[C@H](N(C)C)[C@H]2O)[C@](C)(OC)C[C@@H](C)C(=O)[C@H](C)[C@@H](O)[C@]1(C)O [Clarithromycin]
Stability [3]: stable at an acidic pH
